Test results: patent US20240197761A1, “FUCOSYLATION AND IMMUNE MODULATION IN CANCER” (H. LEE MOFFITT CANCER CENTER AND RESEARCH INSTITUTE, INC., priority 2021, published 2024)

Test system: SW1 tumors
Assay: Control vs. L-fucose ± FTY720 model: tumor growth and flow cytometric profiling of tumors and lymph nodes (Table 1)
Assay type: in vivo, C3H/HeN mice
Description: FIGS. 15A-15E Lymph node egress is necessary for L-fucose-triggered tumor suppression; L-fucose increases intratumoral CD4+T stem and central memory cells. (a) Immune subpopulations markers use to profile by flow cytometry. (b) Volumetric growth curves for SW1 tumors in C3H/HeN mice fed without (Ctl) or with L-fucose (LF) and treated with FTY720 (Ctl mice administered FTY720: (FTY); LF-supplemented mice administered FTY720: (L+F)). FTY720 was administered at 20 μg per mouse every 2 days starting on Day 12, just prior to the initiation of LF (c) Pie charts showing ratios of intratumoral or lymph node-resident CD4+ or CD8+T cell subpopulations, as well as DC subtypes from mice at Day 14, 28, and 42 (each pie chart represents 4-5 mice). Assessment of cytotoxic CD4+ T cell populations (CRTAM+) and cytotoxic CD8+ T cell populations (GrzB+) from tumors at Day 28 (d) and Day 42 (e). The tumor growth curves are means±SEM from ≥7 mice per group. *=p<0.05.
Tumors of SW1 or SM1 melanoma cells from […] or C57BL/6 mice, respectively) were digested using 1× tumor digest buffer (0.5 mg/mL Collagenase I, 0.5 mg/mL Collagenase IV, 0.25 mg/mL Hyalyronidase V, 0.1 mg/mL DNAse I in HBSS (Millipore Sigma (St. Louis, MO)). Tumors were homogenized using the Miltenyi MACs dissociator. Red blood cells were lysed using ACK lysis buffer (Life Technologies, (Grand Island, NY)). Tumor homogenate cells were counted using a standard hemocytometer.
Total TILs were gated first to single cells (based on forward scatter height vs width, followed by side scatter height vs. width). Live cells were gated from the Zombie negative population from the population above. TILs were gated based on splenocyte size from a control spleen. Individual immune subpopulations were sub-gated from the total TIL population using the following staining criteria: CD3+ for CD3+ T cells; CD3+/CD4+/CD8− for CD4+T cells; CD3+/CD4−/CD8+ for CD8+ T cells, CD11c+/CD11b+ for DCs; either NK1.1 (for C57/BL6 mice) or DX5 (for C3H/HeJ) for NK cells; CD11b+/GR1+ for MDSC-like cells; and F4/80+ for macrophages. Single-cell suspensions from tumor and spleen tissue were stained with Live/Dead Zombie NIR (Biolegend, (San Diego, CA)) at 1:1,000 in PBS for 20 min. Cell suspensions were spun down and stained with the following with antibodies at 0.5 μg/ml per antibody: APC anti-mouse CD3, Pacific Blue anti-mouse CD4, BV785 anti-mouse CD8, PerCP anti-mouse CD25, FITC anti-mouse F4/80, PeCy7 anti-mouse CD11c, PE anti-mouse NK1.1 or PE anti-mouse DX5, and PerCP-Cy5.5 anti-mouse CD11 b. After staining, the cells were washed and fixed (2% formaldehyde), followed by another wash and flow cytometric analysis. The compensation controls were prepared using 0.5 μg/mL of each antibody with UltraComp eBeads, (ThermoFisher Scientific (Waltham, MA)). All samples were subject to flow cytometric profiling using a LSR Flow Cytometer (BD Biosciences (San Jose, CA)) and analysis as indicated using FlowJo software (BD Biosciences (San Jose, CA)).
SW1 or SM1 mouse melanoma cells were injected into syngeneic C3H/HeN (or NSG) female or C57BL/6 male mice, respectively. Cells were injected as follows: parental SW1 cells for FIG. 13A; parental SM1 cells for FIG. 13E; SW1 cells stably expressing either empty vector (EV) or mouse fucose kinase (mFuk) for FIG. 1L; and parental SW1 cells for FIG. 13M. FTY720 was administered at 20 μg every 2 days starting on Day 12, just prior to the initiation of LF, until endpoint.

In the case of C[C@H](O)[C@@H](O)[C@@H](O)[C@H](O)C=O [L-fucose], the “cytotoxic CD4+T cells (CRTAM+)” value (Day 28) was “transiently but significantly increased”, the “CD4 central memory, average # of cells” value (Day 28, lymph nodes) was 2289.20 per 10^6 cells of total tumor and the “CD4 effector memory, average # of cells” value (Day 28, lymph nodes) was 445.15 per 10^6 cells of total tumor. The “CD4 naïve, average # of cells” value (Day 28, lymph nodes) was 9286.89 per 10^6 cells of total tumor, the “CD4 stem central memory, average # of cells” value (shortened to “CD4 stem central memory”) (Day 28, lymph nodes) was 53601.81 per 10^6 cells of total tumor and the “CD8 central memory, average # of cells” value (Day 28, lymph nodes) was 295.92 per 10^6 cells of total tumor. The “CD8 effector memory, average # of cells” value (Day 28, lymph nodes) was 888.80 per 10^6 cells of total tumor, the “CD8 naïve, average # of cells” value (Day 28, lymph nodes) was 18072.26 per 10^6 cells of total tumor and the “CD8 stem central memory, average # of cells” value (“CD8 stem central memory” below) (Day 28, lymph nodes) was 980.96 per 10^6 cells of total tumor. The “cDC1, average # of cells” value (Day 28, lymph nodes) was 359.10 per 10^6 cells of total tumor, the “cDC2, average # of cells” value (Day 28, lymph nodes) was 743.69 per 10^6 cells of total tumor and the “moDC, average # of cells” value (Day 28, lymph nodes) was 37.66 per 10^6 cells of total tumor. The “CD4 central memory, average # of cells” value (Day 28, tumors) was 6.04 per 10^6 cells of total tumor, the “CD4 effector memory, average # of cells” value (Day 28, tumors) was 568.19 per 10^6 cells of total tumor and the “CD4 naïve, average # of cells” value (Day 28, tumors) was 30.44 per 10^6 cells of total tumor. For the same molecule, the “CD4 stem central memory” value (Day 28, tumors) was 5.59 per 10^6 cells of total tumor, the “CD8 central memory, average # of cells” value (Day 28, tumors) was 1.24 per 10^6 cells of total tumor and the “CD8 effector memory, average # of cells” value (Day 28, tumors) was 108.29 per 10^6 cells of total tumor. For the same molecule, the “CD8 naïve, average # of cells” value (Day 28, tumors) was 34.60 per 10^6 cells of total tumor, the “CD8 stem central memory” value (Day 28, tumors) was 0.00 per 10^6 cells of total tumor and the “cDC1, average # of cells” value (Day 28, tumors) was 2301.44 per 10^6 cells of total tumor. The “cDC2, average # of cells” value (Day 28, tumors) was 10732.04 per 10^6 cells of total tumor, the “moDC, average # of cells” value (Day 28, tumors) was 20903.90 per 10^6 cells of total tumor and the “CD4 central memory, average # of cells” value (Day 42, lymph nodes) was 1741.12 per 10^6 cells of total tumor. For the same molecule, the “CD4 effector memory, average # of cells” value (Day 42, lymph nodes) was 5032.79 per 10^6 cells of total tumor, the “CD4 naïve, average # of cells” value (Day 42, lymph nodes) was 105779.76 per 10^6 cells of total tumor and the “CD4 stem central memory” value (Day 42, lymph nodes) was 1587.46 per 10^6 cells of total tumor. The “CD8 central memory, average # of cells” value (Day 42, lymph nodes) was 1741.12 per 10^6 cells of total tumor, the “CD8 effector memory, average # of cells” value (Day 42, lymph nodes) was 5032.79 per 10^6 cells of total tumor and the “CD8 naïve, average # of cells” value (Day 42, lymph nodes) was 105779.76 per 10^6 cells of total tumor. The “CD8 stem central memory” value (Day 42, lymph nodes) was 1587.46 per 10^6 cells of total tumor, the “cDC1, average # of cells” value (Day 42, lymph nodes) was 2141.34 per 10^6 cells of total tumor and the “cDC2, average # of cells” value (Day 42, lymph nodes) was 4375.69 per 10^6 cells of total tumor. For the same molecule, the “moDC, average # of cells” value (Day 42, lymph nodes) was 1201.44 per 10^6 cells of total tumor, the “CD4 central memory, average # of cells” value (Day 42, tumors) was 38.18 per 10^6 cells of total tumor and the “CD4 effector memory, average # of cells” value (Day 42, tumors) was 111.09 per 10^6 cells of total tumor. For the same molecule, the “CD4 naïve, average # of cells” value (Day 42, tumors) was 82.01 per 10^6 cells of total tumor, the “CD4 stem central memory” value (Day 42, tumors) was 16.67 per 10^6 cells of total tumor and the “CD8 central memory, average # of cells” value (Day 42, tumors) was 13.46 per 10^6 cells of total tumor. The “CD8 effector memory, average # of cells” value (Day 42, tumors) was 246.44 per 10^6 cells of total tumor, the “CD8 naïve, average # of cells” value (Day 42, tumors) was 109.29 per 10^6 cells of total tumor and the “CD8 stem central memory” value (Day 42, tumors) was 0.00 per 10^6 cells of total tumor. The “cDC1, average # of cells” value (Day 42, tumors) was 648.96 per 10^6 cells of total tumor, the “cDC2, average # of cells” value (Day 42, tumors) was 78.44 per 10^6 cells of total tumor and the “moDC, average # of cells” value (Day 42, tumors) was 169.08 per 10^6 cells of total tumor. The “intratumoral CD4+T central and effector memory subpopulations” value (FIG. 15c) was “increases”, the “intratumoral monocyte-derived DCs (moDCs)” value (FIG. 15c) was “significantly increased” and the “lymph node cDC2s” value (FIG. 15c) was “significantly increased”. For the same molecule, the L-fuc-triggered tumor suppression (with FTY720 (inhibition of lymph node egress)) was “completely abrogated”.
